Test results as given in patent publication US11241480B2, “Methods for modulation of dietary and microbial exposure with compositions comprising an EGFR ligand” (Washington University, priority 2017, dated 2022).

Columns and labels:
Assay type in all cases: in vivo, mice
[1] = tested on: colonic LP-APCs (LP-MNPs); assay: Luminal antigen delivery to LP-APCs/LP-MNPs, read out by ex vivo T cell co-culture; conditions: for luminal antigen uptake by colonic APCs (expansion of Ova-specific T-cells): DOL 18 mice, agent concurrent with luminal Ova
Procedure: Analysis of luminal antigen delivery to LP-DCs: Mice received Ova 20 g/L (Sigma Aldrich) for 3 days prior to isolation of LP-APCs (dietary Ova FIG. 1C) or were anesthetized and 2 mg Ova (OTI assay) or 25 mg Ova (OTII assay) dissolved in phosphate buffered saline (PBS), or PBS alone (controls), was injected intraluminally into the SI or colon as previously described. Two hours later cell populations were isolated from the non-Peyer's patch bearing SI LP or non-colonic patch bearing colon LP. APC populations and Ova specific […] T-cells were isolated with flow cytometric cell sorting and cultured at a ratio of 1:10 APCs (1×10^4) to T-cells (1×10^5). As a positive control, 10 μg Ova was added to cultures of APC populations isolated from mice receiving luminal PBS. After 3 days, cultures were evaluated for the number of T-cells by flow cytometry and cell counting.
LP-MNP/T cell co-culture: 1×10^5 flow cytometrically sorted splenic CD3+CD4+Vβ8.3+ CBir1 T cells or 1×10^5 flow cytometrically sorted splenic CD3^+CD4^+Vα2^+Vβ5^+ OTI T cells were cultured with […] CD45+ MHCII+ CD11c+ flow cytometrically sorted SI or colonic LP-MNPs isolated from mice two hours following intraluminal administration of 2 mg Ova or PBS. Some wells were cultured with 10 μg Ova or 10 μg CBir1 Flagellin as a positive control. After three days, cultured cells were counted and analyzed by flow cytometry to determine absolute number of transgenic cells to calculate fold increase of T cells.

[2] = tested on: colonic LP Tregs (FoxP3+); assay: Colonic LP Treg/iTreg populations by flow cytometry after early-life manipulation
Procedure: EGFRi treatment: Mice were injected with 500 μg/kg tyrphostin AG1478 (an inhibitor of EGFR phosphorylation) in the neonatal, post-neonatal, or weaned phase on DOLs noted in the text or figure legends.
Isolation of cellular populations and flow cytometry: Sls or colons were harvested, rinsed with PBS, and Peyer's patches or colonic patches were removed. Epithelial cellular populations were released by incubating for 15 min three times in a 37° C. rotating incubator in HBSS media (BioWhittaker, Walkersville, Md.) containing 5 mM EDTA, and splenic and LP cellular populations were isolated as described. SI and colonic APCs were identified as 7AAD^−, CD45^+, CD11c^+, MHCII^+ for flow cytometric sorting. FoxP3 subpopulations were identified as 7AAD^−, CD45^+, CD3^+, CD4^+, FoxP3^+, and either RORγt^+ or Helios^+. For intracellular antigens and cytokines, cells were fixed, permeabilized overnight, and stained per the manufacturers recommendations (eBioscience). Flow cytometry was performed with a FACScan cytometer (BD Biosciences, San Jose, Calif.) retrofitted with additional lasers. Data acquisition was performed using CellQuest (BD Biosciences) and Rainbow (Cytek, Fremont, Calif.) or FlowJo software (Tree Star, Ashland, Oreg.). Data analysis was performed on a Macintosh computer running FlowJo software.

[3] = Serum cytokines and immunoglobulins by ELISA/multiplex after Ova rechallenge; conditions: dietary Ova DOL 0-30; EGFRi DOL 6 and 8 or DOL 24 and 26
Procedure: Measurement of cytokines, EGF, and immunoglobulins: Cytokines were measured using the MILLIPLEX MAP Mouse Cytokine/Chemokine Magnetic Bead Panel (see e.g., FIG. 16D; EMD Millipore) or using ELISAs for EGF (R&D systems), IL13 (eBioscience), Eotaxin (R&D systems), IgE (eBiosciences), and MCPT1 (eBioscience) per the manufacturers recommendations. An ELISA comprised of Ova (Sigma-Aldrich A5503) for capture, and monoclonal anti-IgE antibody conjugated to alkaline phosphatase (Southern Biotech 1110-04) for detection, was used to measure Ova specific IgE.

EGF: recombinant murine EGF (Shenandoah); EGFR ligand, given luminally or intracolonically
luminal antigen uptake by colonic APCs (expansion of Ova-specific T-cells) [1]: impaired at expanding Ova-specific T-cells
luminal antigen uptake by colonic APCs (expansion of Ova-specific T-cells) ([1]; listed as recombinant EGF): inhibited GAPs and luminal antigen loading of LP-MNPs

COc1cc2ncnc(Nc3cccc(Cl)c3)c2cc1OC [EGFRi, tyrphostin AG1478]
capacity of colonic LP-MNPs to stimulate CBir1 T cells ex vivo ([1]; post-weaning mice (DOL28), EGFR inhibition DOL24 and 26): allowed colonic LP-MNPs from post-weaning mice to capture microbial antigen to stimulate CBir1 T cells ex-vivo
colonic LP Treg population, pattern and timing ([2]; EGFRi in neonatal phase, DOL 6 and 8): early peaks in colonic LP Tregs; these peaks rapidly decreased and were not maintained
colonic LP Treg population, pattern and timing ([2]; EGFRi in post-neonatal phase, DOL 14 and 16): resembled the endogenous Treg population of non-manipulated animals
colonic LP Treg population, pattern and timing ([2]; EGFRi on DOL 24 and 26 (beyond weaning)): rapidly lost the colonic Treg population
persistence of the diminished iTreg population ([2]; after manipulation of colonic GAPs (EGFRi neonatal or weaning phase)): at least 8 months
other immunoglobulins, Th1 and Th17 cytokines in serum [3]: did not have elevations in other immunoglobulins or prototypic Th1 or Th17 cytokines
serum Th2 mediators and IgE [3]: markedly elevated serum levels of Th2 mediators, and global and antigen-specific IgE
